Assay results: US20240366589A1, “NHE3-BINDING COMPOUNDS AND METHODS FOR INHIBITING PHOSPHATE TRANSPORT” (Ardelyx, Inc., priority 2013, published 2024)

Key:
Rat NHE3 = molecular target: T1, Rat NHE3 (Rattus norvegicus, UniProt P26433); test: Cell-based NHE3 activity under prompt conditions (OK cells, BCECF pH recovery), rat NHE3; conditions: prompt conditions
T1 construct: expressed in transfected cells; host or cells: Opossum kidney (OK) cells (ATCC), electroporation
Method in brief: (§1)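 OK cells electroporated with rat or human NHE3 were loaded with 5 μM BCECF-AM in NH4Cl-HEPES (pH 7.4) for 30 min at room temperature, then acid-loaded 10 min in Na+-free choline-HEPES.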

[1] = tested on: phosphorus and calcium levels in the urine of rats; test: Urinary excretion of phosphate and calcium in rats (16 h overnight urine); format: in vivo, rat; conditions: rats, oral gavage, 16 h post-dose
[2] = tested on: absorption of sodium from the intestinal lumen; test: Inhibition of intestinal sodium absorption: urinary sodium (uNa) 16 h after single oral dose in rats; format: in vivo, rat; conditions: oral gavage, 16 h post-dose
Method in brief: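 Eight-week-old Sprague-Dawley rats (n=6) given single oral gavage of compound or water vehicle in the late afternoon, then kept in metabolic cages with chow and water ad libitum. Urine collected over 16 h; sodium quantified by ion chromatography and expressed as % of vehicle mean, compared by one-way ANOVA with Dunnett's test.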

Human NHE3 = molecular target: T2, Human NHE3 (Homo sapiens, UniProt P48764); test: Cell-based NHE3 activity under prompt conditions (OK cells, BCECF pH recovery), human NHE3; conditions: prompt conditions
T2 construct: expressed in transfected cells; host or cells: Opossum kidney (OK) cells (ATCC), electroporation
T2 sequence (P48764 26-834): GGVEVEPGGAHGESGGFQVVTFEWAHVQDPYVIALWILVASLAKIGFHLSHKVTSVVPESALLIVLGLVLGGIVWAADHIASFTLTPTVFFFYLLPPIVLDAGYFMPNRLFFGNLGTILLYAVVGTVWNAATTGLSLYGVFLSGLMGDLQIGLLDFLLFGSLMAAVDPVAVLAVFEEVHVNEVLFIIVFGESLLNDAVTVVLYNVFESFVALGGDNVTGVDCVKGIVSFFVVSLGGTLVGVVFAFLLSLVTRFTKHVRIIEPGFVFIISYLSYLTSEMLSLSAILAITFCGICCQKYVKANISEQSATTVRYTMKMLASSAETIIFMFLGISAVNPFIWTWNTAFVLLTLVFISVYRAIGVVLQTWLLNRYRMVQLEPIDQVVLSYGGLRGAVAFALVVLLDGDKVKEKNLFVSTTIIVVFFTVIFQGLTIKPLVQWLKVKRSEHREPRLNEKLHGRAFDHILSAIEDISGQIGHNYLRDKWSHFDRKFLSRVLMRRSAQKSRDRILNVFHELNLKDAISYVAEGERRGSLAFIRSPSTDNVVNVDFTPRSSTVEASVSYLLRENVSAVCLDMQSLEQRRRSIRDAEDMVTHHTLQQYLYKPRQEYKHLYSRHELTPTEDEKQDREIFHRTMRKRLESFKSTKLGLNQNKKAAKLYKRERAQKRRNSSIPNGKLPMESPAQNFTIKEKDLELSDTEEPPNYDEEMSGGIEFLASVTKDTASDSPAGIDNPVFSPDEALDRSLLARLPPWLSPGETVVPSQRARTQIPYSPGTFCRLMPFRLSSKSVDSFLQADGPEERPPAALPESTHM
Method in brief: as §1

[3] = tested on: absorption of sodium from the intestinal lumen; test: Fecal form score (FFS) 16 h after oral dose in rats; format: in vivo, rat; conditions: oral gavage, 16 h post-dose, scale 1-5
Method in brief: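 Eight-week-old Sprague-Dawley rats (n=6) dosed by oral gavage with compound or water vehicle between 4 and 5 PM, then housed in metabolic cages with food and water ad libitum. At 16 h, fecal form scored 1 (normal pellet) to 5 (liquid streams) by two observers; group mean reported.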

T1 sequence (P26433 29-831): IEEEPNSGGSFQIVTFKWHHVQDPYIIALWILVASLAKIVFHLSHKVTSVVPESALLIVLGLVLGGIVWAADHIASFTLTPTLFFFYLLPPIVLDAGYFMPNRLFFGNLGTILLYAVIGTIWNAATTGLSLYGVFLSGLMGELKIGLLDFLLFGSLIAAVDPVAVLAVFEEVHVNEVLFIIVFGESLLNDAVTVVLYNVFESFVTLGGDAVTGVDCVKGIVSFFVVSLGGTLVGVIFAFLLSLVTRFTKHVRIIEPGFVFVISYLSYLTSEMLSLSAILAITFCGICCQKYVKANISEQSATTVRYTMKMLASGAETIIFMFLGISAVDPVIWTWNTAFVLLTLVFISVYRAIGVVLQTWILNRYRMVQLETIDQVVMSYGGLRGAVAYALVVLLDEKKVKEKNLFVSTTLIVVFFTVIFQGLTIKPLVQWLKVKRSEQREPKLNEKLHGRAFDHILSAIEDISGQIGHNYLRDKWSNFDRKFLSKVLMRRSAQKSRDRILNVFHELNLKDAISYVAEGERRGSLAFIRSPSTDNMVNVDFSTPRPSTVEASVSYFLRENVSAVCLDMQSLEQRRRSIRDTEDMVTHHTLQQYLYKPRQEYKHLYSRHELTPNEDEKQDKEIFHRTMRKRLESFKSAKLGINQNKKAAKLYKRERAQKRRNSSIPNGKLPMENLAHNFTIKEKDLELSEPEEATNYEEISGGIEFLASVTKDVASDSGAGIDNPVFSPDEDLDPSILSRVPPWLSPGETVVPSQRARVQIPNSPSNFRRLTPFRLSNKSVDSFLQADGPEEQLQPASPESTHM

SMILES: CN1Cc2c(Cl)cc(Cl)cc2[C@H](c2cccc(S(=O)(=O)NCCOCCOCCOCCNC(=O)CN3CCN(CC(=O)NCCOCCOCCOCCNS(=O)(=O)c4cccc([C@@H]5CN(C)Cc6c(Cl)cc(Cl)cc65)c4)CCN(CC(=O)NCCOCCOCCOCCNS(=O)(=O)c4cccc([C@@H]5CN(C)Cc6c(Cl)cc(Cl)cc65)c4)CCN(CC(=O)NCCOCCOCCOCCNS(=O)(=O)c4cccc([C@@H]5CN(C)Cc6c(Cl)cc(Cl)cc65)c4)CC3)c2)C1 [compound 58]
- Prompt Rat NHE3 pIC50 (Rat NHE3): 6.30
- Urine P % of control ([1]; dose 10 mg/kg): 68%
- Urine Na % of control ([2]; dose 10 mg/kg): 82%
- Prompt Human NHE3 pIC50 (Human NHE3): 7.30
- Fecal Form Score average ([3]; dose 10 mg/kg): 1

SMILES: CN1Cc2c(Cl)cc(Cl)cc2C(c2cccc(S(=O)(=O)NCCOCCOCCOCCNC(=O)CCC(CCC(=O)NCCOCCOCCOCCNS(=O)(=O)c3cccc([C@@H]4CN(C)Cc5c(Cl)cc(Cl)cc54)c3)(CCC(=O)NCCOCCOCCOCCNS(=O)(=O)c3cccc([C@@H]4CN(C)Cc5c(Cl)cc(Cl)cc54)c3)NCc3ccc(-c4ccc(Cl)cc4)cc3)c2)C1 (stereo in doubt) [compound 114]
- Prompt Rat NHE3 pIC50 (Rat NHE3): <5.00
- Urine P % of control ([1]; dose 10 mg/kg): 100%
- Urine Na % of control ([2]; dose 10 mg/kg): 45%
- Prompt Human NHE3 pIC50 (Human NHE3): <5.00
- Fecal Form Score average ([3]; dose 10 mg/kg): 3

SMILES: CNC(=O)NC(CCC(=O)NCCOCCOCCNS(=O)(=O)c1cccc([C@@H]2CN(C)Cc3c(Cl)cc(Cl)cc32)c1)(CCC(=O)NCCOCCOCCNS(=O)(=O)c1cccc([C@@H]2CN(C)Cc3c(Cl)cc(Cl)cc32)c1)CCC(=O)NCCOCCOCCNS(=O)(=O)c1cccc([C@@H]2CN(C)Cc3c(Cl)cc(Cl)cc32)c1 [compound 130]
- Prompt Rat NHE3 pIC50 (Rat NHE3): 6.10
- Urine P % of control ([1]; dose 3 mg/kg): 70%
- Urine Na % of control ([2]; dose 3 mg/kg): 18%
- Prompt Human NHE3 pIC50 (Human NHE3): 7.20
- Fecal Form Score average ([3]; dose 3 mg/kg): 2

SMILES: CN1Cc2c(Cl)cc(Cl)cc2[C@H](c2cccc(S(=O)(=O)NCCOCCOCCNC(=O)CCC(CCCNC(=O)NCCOCCOCCNS(=O)(=O)c3cccc([C@@H]4CN(C)Cc5c(Cl)cc(Cl)cc54)c3)(CCC(=O)NCCOCCOCCNS(=O)(=O)c3cccc([C@@H]4CN(C)Cc5c(Cl)cc(Cl)cc54)c3)NC(=O)NCP(=O)(O)O)c2)C1 [compound 162]
- Prompt Rat NHE3 pIC50 (Rat NHE3): 7.30
- Urine P % of control ([1]; dose 2 mg/kg): 50%
- Urine Na % of control ([2]; dose 2 mg/kg): 130%
- Prompt Human NHE3 pIC50 (Human NHE3): 6.60
- Fecal Form Score average ([3]; dose 2 mg/kg): 2

SMILES: CN1Cc2c(Cl)cc(Cl)cc2[C@H](c2cccc(S(=O)(=O)NCCOCCOCCNCCCC(CCC(=O)NCCOCCOCCNS(=O)(=O)c3cccc([C@@H]4CN(C)Cc5c(Cl)cc(Cl)cc54)c3)(CCC(=O)NCCOCCOCCNS(=O)(=O)c3cccc([C@@H]4CN(C)Cc5c(Cl)cc(Cl)cc54)c3)NC(=O)N3CCN(CCOCCO)CC3)c2)C1 [compound 170]
- IC50 (Rat NHE3; read-out: Prompt Rat NHE3 pIC50 (converted)): 79.4 nM
- Urine P % of control ([1]; dose 3 mg/kg): 34%
- Urine Na % of control ([2]; dose 3 mg/kg): 31%
- Prompt Human NHE3 pIC50 (Human NHE3): 7.20
- Fecal Form Score average ([3]; dose 3 mg/kg): 2

SMILES: CN(C)[C@H]1Cc2c(Cl)cc(Cl)cc2[C@@H]1Oc1ccc(S(=O)(=O)NCCOCCOCCNC(=O)CCC(=O)NCCOCCOCCNS(=O)(=O)c2ccc(O[C@H]3c4cc(Cl)cc(Cl)c4C[C@@H]3N(C)C)cc2)cc1 [compound 148]
- Prompt Rat NHE3 pIC50 (Rat NHE3): 8.40
- Urine P % of control ([1]; dose 3 mg/kg): 146%
- Urine Na % of control ([2]; dose 3 mg/kg): 49%
- Prompt Human NHE3 pIC50 (Human NHE3): 7.80
- Fecal Form Score average ([3]; dose 3 mg/kg): 1

SMILES: CN1CCN(C(=O)NC(CCC(=O)NCCOCCOCCNS(=O)(=O)c2cccc(C3CN(C)Cc4c(Cl)cc(Cl)cc43)c2)(CCC(=O)NCCOCCOCCNS(=O)(=O)c2cccc([C@@H]3CN(C)Cc4c(Cl)cc(Cl)cc43)c2)CCC(=O)NCCOCCOCCNS(=O)(=O)c2cccc([C@@H]3CN(C)Cc4c(Cl)cc(Cl)cc43)c2)CC1 (stereo in doubt) [compound 153]
- Prompt Rat NHE3 pIC50 (Rat NHE3): 6.90
- Urine P % of control ([1]; dose 3 mg/kg): 84%
- Urine Na % of control ([2]; dose 3 mg/kg): 28%
- Prompt Human NHE3 pIC50 (Human NHE3): 7.50
- Fecal Form Score average ([3]; dose 3 mg/kg): 3

SMILES: CN1Cc2c(Cl)cc(Cl)cc2[C@H](c2cccc(S(=O)(=O)NCCOCCOCCNC(=O)CCC(CCC(=O)NCCOCCOCCNS(=O)(=O)c3cccc([C@@H]4CN(C)Cc5c(Cl)cc(Cl)cc54)c3)(CCC(=O)NCCOCCOCCNS(=O)(=O)c3cccc([C@@H]4CN(C)Cc5c(Cl)cc(Cl)cc54)c3)NC(=O)NC(CO)(CO)CO)c2)C1 [compound 158]
- Prompt Rat NHE3 pIC50 (Rat NHE3): <5.00
- Urine P % of control ([1]; dose 3 mg/kg): 64%
- Urine Na % of control ([2]; dose 3 mg/kg): 32%
- Prompt Human NHE3 pIC50 (Human NHE3): 6.90
- Fecal Form Score average ([3]; dose 3 mg/kg): 2

SMILES: CN1Cc2c(Cl)cc(Cl)cc2[C@H](c2cccc(S(=O)(=O)NCCOCCOCCNC(=O)NCCN(CCNC(=O)NCCOCCOCCNS(=O)(=O)c3cccc([C@@H]4CN(C)Cc5c(Cl)cc(Cl)cc54)c3)C(=O)CCCCCCCCCCC(=O)N(CCNC(=O)NCCOCCOCCNS(=O)(=O)c3cccc([C@@H]4CN(C)Cc5c(Cl)cc(Cl)cc54)c3)CCNC(=O)NCCOCCOCCNS(=O)(=O)c3cccc([C@@H]4CN(C)Cc5c(Cl)cc(Cl)cc54)c3)c2)C1 [compound 83]
- Prompt Rat NHE3 pIC50 (Rat NHE3): <5.00
- Urine P % of control ([1]; dose 10 mg/kg): 59%
- Urine Na % of control ([2]; dose 10 mg/kg): 82%
- Prompt Human NHE3 pIC50 (Human NHE3): <5.00
- Fecal Form Score average ([3]; dose 10 mg/kg): 1

SMILES: CN1Cc2c(Cl)cc(Cl)cc2[C@H](c2cccc(S(=O)(=O)NCCOCCOCCOCCNC(=O)CCC(CCC(=O)NCCOCCOCCOCCNS(=O)(=O)c3cccc([C@@H]4CN(C)Cc5c(Cl)cc(Cl)cc54)c3)(CCC(=O)NCCOCCOCCOCCNS(=O)(=O)c3cccc([C@@H]4CN(C)Cc5c(Cl)cc(Cl)cc54)c3)NC(=O)c3ccc(-c4ccc(Cl)cc4)cc3)c2)C1 [compound 91]
- Prompt Rat NHE3 pIC50 (Rat NHE3): 5.30
- Urine P % of control ([1]; dose 10 mg/kg): 56%
- Urine Na % of control ([2]; dose 10 mg/kg): 77%
- Prompt Human NHE3 pIC50 (Human NHE3): <5.00
- Fecal Form Score average ([3]; dose 10 mg/kg): 1

SMILES: O=C(NCCCCNC(=O)NCCOCCOCCNS(=O)(=O)c1ccc(O[C@H]2c3cc(Cl)cc(Cl)c3C[C@@H]2N2CCCCC2)cc1)NCCOCCOCCNS(=O)(=O)c1ccc(O[C@H]2c3cc(Cl)cc(Cl)c3C[C@@H]2N2CCCCC2)cc1 [compound 68]
- Prompt Rat NHE3 pIC50 (Rat NHE3): <5.00
- Urine P % of control ([1]; dose 10 mg/kg): 97%
- Urine Na % of control ([2]; dose 10 mg/kg): 70%
- Prompt Human NHE3 pIC50 (Human NHE3): <5.00
- Fecal Form Score average ([3]; dose 10 mg/kg): 1

SMILES: CN(CC(=O)O)CC(=O)NC(CCC(=O)NCCOCCOCCNS(=O)(=O)c1cccc([C@@H]2CN(C)Cc3c(Cl)cc(Cl)cc32)c1)(CCC(=O)NCCOCCOCCNS(=O)(=O)c1cccc([C@@H]2CN(C)Cc3c(Cl)cc(Cl)cc32)c1)CCC(=O)NCCOCCOCCNS(=O)(=O)c1cccc([C@@H]2CN(C)Cc3c(Cl)cc(Cl)cc32)c1 [compound 138]
- Prompt Rat NHE3 pIC50 (Rat NHE3): 7.30
- Urine P % of control ([1]; dose 3 mg/kg): 78%
- Urine Na % of control ([2]; dose 3 mg/kg): 37%
- Prompt Human NHE3 pIC50 (Human NHE3): 7.30
- Fecal Form Score average ([3]; dose 3 mg/kg): 2

SMILES: N[C@@H]1CCCN([C@H]2Cc3c(Cl)cc(Cl)cc3[C@@H]2Oc2ccc(S(=O)(=O)NCCOCCOCCNC(=O)NCCCCNC(=O)NCCOCCOCCNS(=O)(=O)c3ccc(O[C@H]4c5cc(Cl)cc(Cl)c5C[C@@H]4N4CCC[C@@H](N)C4)cc3)cc2)C1 [compound 135]
- Prompt Rat NHE3 pIC50 (Rat NHE3): 7.40
- Urine P % of control ([1]; dose 1 mg/kg): 92%
- Urine P % of control ([1]; dose 3 mg/kg): 44%
- Urine P % of control ([1]; dose 10 mg/kg): 85%
- Urine Na % of control ([2]; dose 1 mg/kg): 100%
- Urine Na % of control ([2]; dose 3 mg/kg): 94%
- Urine Na % of control ([2]; dose 10 mg/kg): 58%
- Prompt Human NHE3 pIC50 (Human NHE3): 8.45
- Fecal Form Score average ([3]; dose 1 mg/kg): 1
- Fecal Form Score average ([3]; dose 3 mg/kg): 1
- Fecal Form Score average ([3]; dose 10 mg/kg): 2
